# ChEMBL document CHEMBL3507680, “University of Dundee, Gates Library screen for HepG2 cell viability”
# Assay: Human HepG2 cell viability assay in 384 well format
# Assay type: toxicity, cell-based
# Set-up: dose 125 nL, time 70.5 hour; cytotoxicity at 70.5 h: concentration not given beside the values
# Conditions: HepG2 cells, read-out: Inhibition
row,SMILES,cytotoxicity at 70.5 h [%]
1,CCCC(=O)N(CCN1CCOCC1)c1nc2c(OC)ccc(C)c2s1,-7.03
2,Cc1c(C)n2c(SCC(=O)N3CCC(C)CC3)nnc2[nH]c1=O,-4.99
3,Cc1c(C)n2c(SCC(=O)N3CCCC3)nnc2[nH]c1=O,-7.34
4,CC(C)NC(=O)CSc1nc2c(cnn2CCO)c(=O)[nH]1,26.7
5,NC(=O)Cn1c(CO)cnc1SCC(=O)NCc1ccccc1Cl,15.7
6,CCS(=O)(=O)Nc1ccc2c(c1)OCC(C)(C)C(=O)N2C,19
7,O=C(c1ccccc1F)N1CCN(c2ccc(-n3cccn3)nn2)CC1,0.31
8,CCc1cc(=O)[nH]c2nnc(SCC(=O)N3CCC(C)CC3)n12,19.7
9,Cc1cc(C(=O)N2CCN(c3nc4c(C)cccc4s3)CC2)no1,9.18
10,COc1ccc(CNc2c(C)cnc3c2c(=O)n(C)c(=O)n3C)cc1,7.6
11,CCc1cnc2c(c1Nc1ccccc1OC)c(=O)n(C)c(=O)n2C,5.02
12,CCc1cnc2c(c1Nc1cccc(OC)c1)c(=O)n(C)c(=O)n2C,1.18
13,CCc1cnc2c(c1Nc1ccc(C)c(F)c1)c(=O)n(C)c(=O)n2C,-8.17
14,CC(C)c1nn(CC(=O)N2CCCC2)c(=O)c2c1cnn2C(C)(C)C,14.2
15,CCN(CC)C(=O)Cn1nc(C(C)C)c2cnn(C(C)(C)C)c2c1=O,13.7
16,COCCNC(=O)Cn1cc(OCc2ccc(F)cc2)c(=O)cc1C,9.56
17,COCCNC(=O)Cn1cc(OCc2ccccc2F)c(=O)cc1CO,45.6
18,Cc1cnc2n(c1=O)C(CC(=O)NCc1ccc(F)cc1)CS2 (stereo unspecified),-6.08
19,Cc1cnc2n(c1=O)C(CC(=O)NCc1cccs1)CS2 (stereo unspecified),0.951
20,COc1cccc(CNC(=O)CC2CSc3nc(C)c(C)c(=O)n32)c1 (stereo unspecified),-2.74
21,CCCc1cc(=O)[nH]c2nnc(SCC(=O)OC)n12,-8.96
22,CCCc1cc(=O)[nH]c2nnc(SCC(=O)OCC)n12,-9.96
23,Cc1ccccc1-n1ncc2c(=O)n(CCN3CCCCC3)cnc21,21

row,SMILES,cytotoxicity at 70.5 h [%]
1,CCc1cc(=O)[nH]c(SCc2ccccn2)n1,-5.73
2,Cc1cc(C)nc(NC(=O)NCCCSc2nncn2C)n1,-8.45
3,Cc1cc(NC(=O)NCCCSc2nncn2C)no1,-11.7
4,COc1cn(CC(N)=O)c(CSc2nc(C)cc(C)n2)cc1=O,59.2
5,O=c1nc(SCc2cccnc2)c2c(n1CCO)CCCC2,-11
6,O=S(=O)(c1cccs1)N1CCC(c2nc(-c3cccs3)no2)CC1,1.6
7,CCCN1CCc2nc(SCc3c(C)cc(C)cc3C)[nH]c(=O)c2C1,4.68
8,Cc1nn(CCNS(=O)(=O)c2ccccc2)c(C)c1Cl,-7.1
9,CC(=O)c1c(C)nn(CC(=O)Nc2ccc(F)cc2)c1C,30
10,CCCS(=O)(=O)c1ccc(N2CCN(Cc3ccccc3)CC2)nn1,-8.4
11,CCN(CC)c1nc2ccsc2c(=O)n1CCC(=O)NC1CCCC1,-6.51
12,Cc1ccc(NC(=O)Cn2ncc(SCC(N)=O)c(Cl)c2=O)c(F)c1,-17.2
13,CC(C)OC(=O)CN1N=C(C(=O)N2CCCC2)S(=O)(=O)c2ccccc21,1.63
14,CCOc1ccc(CNC(=O)c2cnc(OC)nc2)cc1,-2.49
15,CC(C)CCn1nc2ccc(S(=O)(=O)N3CCOCC3)cn2c1=O,-7.21
16,O=c1c(S(=O)(=O)N2CCCC2)cccn1Cc1ccc(F)cc1Cl,31.5
17,CC(C)(C)OC(=O)Cn1cccc(S(=O)(=O)N2CCCCCC2)c1=O,-12.4
18,O=c1[nH]c2c(-c3ccccn3)nsc2c(=O)n1CC1CC1,-14.6
19,CC1CCN(c2cc(-n3cnc(C(=O)N4CCSCC4)c3)ncn2)CC1,-13.5
20,CC1CCN(C(=O)c2cn(-c3cc(N4CCOCC4)ncn3)cn2)CC1,-14
21,COc1cccc(C(O)CN2CCN(c3cccc(C)c3)CC2)c1 (stereo unspecified),0.851
22,Cc1ccccc1-c1csc2c(=O)[nH]c(N3CCCC(C(=O)O)C3)nc12 (stereo unspecified),14.6
23,O=C(Cc1cc(-c2ccc3c(c2)OCO3)on1)NC1CCCC1,-8.33

row,SMILES,cytotoxicity at 70.5 h [%]
1,Cc1cc(C(=O)N2CCN(c3nc4c(C(C)C)cccc4s3)CC2)on1,32
2,CCOc1nn(CC)cc1-c1nnc(SCC)n1C,-12.3
3,CCOCCSc1nnc(-c2cn(CC)nc2OCC)n1C,-7.58
4,CCn1nnc2c1CCN(C(=O)c1ccc3c(c1)OCO3)C2COC (stereo unspecified),10.7
5,CN(C)C(=O)c1ccn(-c2ccc3ccccn23)n1,-4.81
6,COCCN1CCC2(CCCN(c3ncc(F)cn3)C2)C1 (stereo unspecified),-3.02
7,CC(C)CNC(=O)N1CCOC2(CCNCC2)C1,-3.81
8,O=c1cc(CN2CCCC2)nc2n1CCCN(Cc1ccco1)C2,-2.44
9,O=C(c1nc2c(s1)CCCN2CC1CC1)N1CCOCC1,4.5
10,COCCn1cc(-c2cc(C(=O)N3CCCC3)c3ccccn23)nc1C,-0.704
11,CS(=O)(=O)N1CCOC2(CCCN(c3ncc(F)cn3)C2)C1 (stereo unspecified),-2.76
12,O=C(N1CCCC1)N1CCC2(CC(=O)N(c3ccc4c(c3)OCO4)C2)C1 (stereo unspecified),-2.04
13,OCCN1CCOC2(CCCN(c3ncccn3)C2)C1 (stereo unspecified),-2.47
14,O=C(c1ccno1)N1CCC2(CC(=O)N(c3ccc4c(c3)OCO4)C2)C1 (stereo unspecified),-0.613
15,Cc1nc(NC(C)C)nc2c1CN(Cc1nccn1C)CC2,0.21
16,O=C(c1nc2c(s1)CCCN2CC1CC1)N1CCCC1,-0.67
17,Cc1cccc(CO[C@H]2CO[C@@]3(CCN(S(=O)(=O)N(C)C)C3)C2)n1,15.2
18,CC(C)N(C)Cc1noc2c1CN(C(=O)c1cnccn1)CC2,-1.15
19,COCCC(=O)N1CC[C@H]2C(=O)N(c3ccsc3)CCO[C@H]2C1,-1.99
20,CCNC(=O)CC1CC2(CCN(C(C)=O)CC2)c2cc(F)ccc21 (stereo unspecified),-5.07
21,COCC(=O)N1C[C@@H]2COC[C@]2(COC)C1,-9.06
22,COC[C@]12COC[C@H]1CN(C(=O)C1CC(F)(F)C1)C2,-8.18
23,CCOCc1cnc2n1CCN(C(=O)Cc1cccs1)C2C (stereo unspecified),-7.5

row,SMILES,cytotoxicity at 70.5 h [%]
1,COC1COC2(CCN(C(=O)c3cnc(C)cn3)CC2)C1 (stereo unspecified),-6.81
2,CCOc1cc(=O)n2c(c1C(=O)OCc1ccc(F)cc1)CCCC2,-8.82
3,O=C(NC1CCCC1)N1CCCCC1c1nc(C2CC2)no1 (stereo unspecified),-15.1
4,O=C(NCc1ccco1)N1CCCCC1c1nc(C2CC2)no1 (stereo unspecified),-7.19
5,Nc1nc(N2CCCCC2)ncc1C(=O)NCc1ccc(F)c(Cl)c1,-20
6,CC1CCCN(c2ncc(C(=O)NCc3ccc(F)c(Cl)c3)c(N)n2)C1 (stereo unspecified),19.8
7,CC(C)NC(=O)C1CCN(c2nc3nc[nH]c(=O)c3s2)CC1,-21.7
8,O=C(C1CCN(c2nc3nc[nH]c(=O)c3s2)CC1)N1CCCCC1,-15.6
9,CCCC(=O)N(CCCN1CCOCC1)c1nc2c(F)cccc2s1,-1.9
10,CCCC(=O)N(CCCN1CCOCC1)c1nc2c(C)c(C)ccc2s1,-14.7
11,CN(C)C(=O)CN1C(=O)CO[C@@H]2CN(c3ccccn3)C[C@H]21,-7.96
12,CC(C)NCC1OCCc2cn(C)nc21 (stereo unspecified),-6.64
13,CCn1ncc2c1C(COC)N(C(=O)c1ccc3c(c1)OCO3)CC2 (stereo unspecified),-5.04
14,CNC(=O)CN1CCO[C@H]2CN(C(=O)C3CC3)C[C@H]21,-2.66
15,COCCN1CCC2(C1)CN(c1ncccn1)C2,-0.0538
16,Cc1ccc(NC(=O)c2nc3c(s2)CCCN3C(=O)C2CC2)cn1,3.07
17,COCCN1CCO[C@@H]2CN(C(=O)Cc3ccc(F)cc3)CC[C@@H]2C1,4.68
18,CC(=O)N1CCO[C@@H]2CN(C(=O)NCc3cccnc3)CC[C@@H]2C1,-2.08
19,CN(C)C[C@H]1OC[C@@H]2CN(C(=O)NCc3cccc(F)c3)CC[C@@H]21,-5.06
20,COCC(=O)NCC1Cn2nnc(-c3ccncc3)c2CO1 (stereo unspecified),-3.5
21,CC(C)Nc1nc2c(c(NC3CC3)n1)CCN(Cc1nccn1C)CC2,-1.1
22,O=C1[C@H]2CN(C3CCOC3)C[C@H]2CN1c1ccccc1 (stereo partly specified),-1.16
23,O=C(NCC1COCc2c(-c3ccncc3)nnn2C1)[C@H]1CCCO1 (stereo partly specified),-0.723

row,SMILES,cytotoxicity at 70.5 h [%]
1,CN(C)S(=O)(=O)N1CC[C@]2(C[C@H](OCc3ccccn3)CO2)C1,-0.384
2,O=C(CO)N1CCOC2(CCCN(c3ncc(F)cn3)C2)C1 (stereo unspecified),-0.965
3,CN(C)S(=O)(=O)N1CC[C@]2(C[C@@H](OCc3ccccn3)CO2)C1,-1.04
4,CCS(=O)(=O)N1CCC2(CCN(Cc3nccs3)CC2)CC1,15.2
5,O=C(c1ccsc1)N1CCc2onc(COc3ccccn3)c2C1,-1.49
6,CCOCC(=O)N1CCC2(CC1)COCCN2CCOC,-1.68
7,O=C(Cc1cccs1)N1CCC2(CC1)COCCN2CC1CC1,-8.87
8,COCC(=O)N1CCC2(CCN(Cc3ccc(C)cc3)CC2)CC1,-11.5
9,O=S(=O)(C1CC1)N1CC[C@@H]2[C@@H]1CCN2Cc1cccs1,-6.17
10,c1cc(CNCC2Cn3nncc3CO2)co1 (stereo unspecified),-6.75
11,CCOCc1cnc2n1CCN(Cc1cccs1)C2C (stereo unspecified),-8.03
12,COc1cc(N2CCc3ncnc(-c4ccncc4)c3CC2)ncn1,-6.14
13,N#Cc1cccc(CN2CC[C@@H]3CO[C@@H](CN4CCCC4)[C@@H]3C2)c1,-4.24
14,CN(C)CCOCc1nnc2n1CCN(Cc1ccco1)C2,-1.46
15,CNC(=O)CN1CCO[C@H]2CN(CC3CC3)C[C@H]21,-2.3
16,O=c1ccc2c(n1Cc1cccnc1)CCN(CC1CCOC1)CC2 (stereo unspecified),-4.17
17,c1cncc(-c2ccc3c(c2)CCC32CCN(Cc3ccco3)CC2)c1,-0.391
18,C[C@@H]1CN(C2CCOC2)C[C@]12CCN(c1cccnc1)C2=O (stereo partly specified),-9.89
19,Cc1cc(C)c(N(CC(O)CNCc2ccco2)S(C)(=O)=O)c(C)c1 (stereo unspecified),-7.18
